Measured values from patent US20240109865A1, “INDAZOLE COMPOUNDS AS KINASE INHIBITORS” (TYRA BIOSCIENCES, INC., priority 2020, published 2024).

How the values were obtained:
Assay in all cases: Kinase assay, binding constants (Kd), kinase-tagged T7 phage, qPCR
FGFR1 = FGFR1 (Homo sapiens (Human), UniProt P11362)
In short: (§1)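 Competition binding: kinase-tagged T7 phage lysates mixed with immobilized biotinylated ligand on streptavidin beads plus compound (11-point 3-fold dilution series, 0.9% DMSO final). Bound kinase eluted with free ligand and quantified by qPCR. Kd from Hill equation fit, slope fixed at −1.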

FGFR2 = FGFR2 (Homo sapiens (Human), UniProt P21802)
In short: as §1

FGFR3 = FGFR3 (Homo sapiens (Human), UniProt P22607)
In short: as §1

FGFR3 (V555M) = FGFR3 (V555M) (Homo sapiens (Human), UniProt P22607, V555M); details: V555M mutant
In short: as §1

FGFR4 = FGFR4 (Homo sapiens (Human), UniProt P22455)
In short: as §1

Chain of FGFR4 (P22455 22-802): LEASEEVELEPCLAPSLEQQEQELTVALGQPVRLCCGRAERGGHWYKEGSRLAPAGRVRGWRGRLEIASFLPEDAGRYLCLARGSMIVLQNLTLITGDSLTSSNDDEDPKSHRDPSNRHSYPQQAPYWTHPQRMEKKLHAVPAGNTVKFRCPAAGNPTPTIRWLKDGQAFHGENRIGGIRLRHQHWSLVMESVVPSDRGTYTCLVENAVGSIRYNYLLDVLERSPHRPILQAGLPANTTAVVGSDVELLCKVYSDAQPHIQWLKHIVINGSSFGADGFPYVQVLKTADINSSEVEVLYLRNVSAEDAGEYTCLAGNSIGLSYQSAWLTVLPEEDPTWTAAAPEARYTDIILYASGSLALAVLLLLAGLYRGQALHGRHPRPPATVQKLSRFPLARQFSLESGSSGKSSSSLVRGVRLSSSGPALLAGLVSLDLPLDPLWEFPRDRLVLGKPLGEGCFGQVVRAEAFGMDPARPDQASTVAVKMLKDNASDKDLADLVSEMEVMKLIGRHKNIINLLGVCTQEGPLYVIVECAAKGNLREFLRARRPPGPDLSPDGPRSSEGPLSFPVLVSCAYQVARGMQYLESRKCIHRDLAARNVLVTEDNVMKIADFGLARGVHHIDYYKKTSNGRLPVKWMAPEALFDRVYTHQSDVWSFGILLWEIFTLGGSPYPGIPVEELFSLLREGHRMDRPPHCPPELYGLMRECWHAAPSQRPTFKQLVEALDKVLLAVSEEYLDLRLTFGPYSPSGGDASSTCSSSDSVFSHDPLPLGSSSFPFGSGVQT
Chain of FGFR3 (V555M) (P22607 23-806 V555M): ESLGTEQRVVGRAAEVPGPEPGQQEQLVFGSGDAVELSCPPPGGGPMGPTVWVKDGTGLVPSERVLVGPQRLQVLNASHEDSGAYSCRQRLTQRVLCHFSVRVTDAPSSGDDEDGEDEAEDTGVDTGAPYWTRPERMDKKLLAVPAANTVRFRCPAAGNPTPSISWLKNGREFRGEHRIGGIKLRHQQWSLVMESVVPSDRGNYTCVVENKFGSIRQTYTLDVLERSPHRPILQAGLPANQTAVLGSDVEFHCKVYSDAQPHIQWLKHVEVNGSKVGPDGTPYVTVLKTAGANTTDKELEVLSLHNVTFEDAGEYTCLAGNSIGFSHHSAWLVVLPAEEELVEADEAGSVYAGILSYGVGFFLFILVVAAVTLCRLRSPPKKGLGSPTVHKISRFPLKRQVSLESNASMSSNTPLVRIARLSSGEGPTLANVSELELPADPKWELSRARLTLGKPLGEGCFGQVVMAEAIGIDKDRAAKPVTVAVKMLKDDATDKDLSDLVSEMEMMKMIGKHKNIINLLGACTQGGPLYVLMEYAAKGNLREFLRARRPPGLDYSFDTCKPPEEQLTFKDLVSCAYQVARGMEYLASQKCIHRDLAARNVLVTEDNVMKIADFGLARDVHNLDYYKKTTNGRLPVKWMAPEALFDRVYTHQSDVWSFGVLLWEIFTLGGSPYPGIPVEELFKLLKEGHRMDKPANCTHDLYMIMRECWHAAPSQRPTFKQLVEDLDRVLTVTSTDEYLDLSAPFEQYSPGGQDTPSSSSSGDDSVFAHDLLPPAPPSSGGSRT
Chain of FGFR1 (P11362 22-822): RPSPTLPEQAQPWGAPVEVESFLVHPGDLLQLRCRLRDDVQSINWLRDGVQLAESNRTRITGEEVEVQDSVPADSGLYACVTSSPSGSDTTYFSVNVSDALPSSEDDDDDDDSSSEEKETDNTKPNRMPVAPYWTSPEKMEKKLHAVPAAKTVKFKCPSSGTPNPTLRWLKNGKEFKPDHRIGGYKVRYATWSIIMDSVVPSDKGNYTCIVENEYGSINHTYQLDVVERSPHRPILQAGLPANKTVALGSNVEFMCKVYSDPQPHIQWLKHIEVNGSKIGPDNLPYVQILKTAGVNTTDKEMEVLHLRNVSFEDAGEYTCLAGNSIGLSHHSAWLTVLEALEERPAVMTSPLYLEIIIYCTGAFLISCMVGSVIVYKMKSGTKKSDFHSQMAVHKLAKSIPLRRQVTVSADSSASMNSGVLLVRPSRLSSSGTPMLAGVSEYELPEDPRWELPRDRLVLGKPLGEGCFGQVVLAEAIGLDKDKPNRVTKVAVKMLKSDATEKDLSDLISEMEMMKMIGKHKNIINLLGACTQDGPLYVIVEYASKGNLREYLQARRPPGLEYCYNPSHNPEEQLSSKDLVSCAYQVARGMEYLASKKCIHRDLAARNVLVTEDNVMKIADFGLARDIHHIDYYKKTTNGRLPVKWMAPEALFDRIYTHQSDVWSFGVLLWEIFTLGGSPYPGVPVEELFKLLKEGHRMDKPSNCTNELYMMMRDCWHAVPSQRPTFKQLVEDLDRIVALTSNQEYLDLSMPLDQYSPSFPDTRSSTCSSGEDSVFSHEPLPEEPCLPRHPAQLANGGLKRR
Chain of FGFR3 (P22607 23-806): as the sequence (P22607 23-806 V555M) above, with M533V counted along it
Chain of FGFR2 (P21802 22-821): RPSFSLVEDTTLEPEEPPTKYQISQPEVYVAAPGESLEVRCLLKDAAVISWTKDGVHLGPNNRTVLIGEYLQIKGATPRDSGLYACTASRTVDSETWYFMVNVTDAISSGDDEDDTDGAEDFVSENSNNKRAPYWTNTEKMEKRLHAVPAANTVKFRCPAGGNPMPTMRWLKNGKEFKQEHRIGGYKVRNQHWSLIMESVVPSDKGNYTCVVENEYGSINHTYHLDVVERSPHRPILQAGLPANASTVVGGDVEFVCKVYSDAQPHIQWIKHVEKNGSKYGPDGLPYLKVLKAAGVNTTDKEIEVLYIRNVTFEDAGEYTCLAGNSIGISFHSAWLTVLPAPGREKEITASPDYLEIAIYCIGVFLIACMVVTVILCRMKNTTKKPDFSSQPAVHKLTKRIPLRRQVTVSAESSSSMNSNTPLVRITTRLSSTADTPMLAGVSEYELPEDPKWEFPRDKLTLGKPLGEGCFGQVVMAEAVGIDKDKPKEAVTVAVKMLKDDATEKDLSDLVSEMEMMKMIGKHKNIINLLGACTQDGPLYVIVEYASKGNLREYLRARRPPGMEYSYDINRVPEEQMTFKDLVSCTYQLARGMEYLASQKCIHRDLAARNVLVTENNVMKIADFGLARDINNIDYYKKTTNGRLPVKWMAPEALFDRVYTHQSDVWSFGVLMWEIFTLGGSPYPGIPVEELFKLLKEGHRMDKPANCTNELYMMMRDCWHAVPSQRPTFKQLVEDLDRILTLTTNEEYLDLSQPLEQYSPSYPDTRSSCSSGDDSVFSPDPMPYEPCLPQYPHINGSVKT

| Kd (FGFR1) [nM] | Kd (FGFR2) [nM] | Kd (FGFR3) [nM] | Kd (FGFR3 (V555M)) [nM] | Kd (FGFR4) [nM] | SMILES |
| --- | --- | --- | --- | --- | --- |
| > 300 | 100 to 300 | 100 to 300 | 100 to 300 | 1 to 20 | C[C@@H](Oc1ccc2[nH]nc(-c3cnc(N4CCC4)c(C#N)c3)c2c1)c1c(Cl)cnnc1Cl [Example 361, (R)-2-(azetidin-1-yl)-5-(5-(1-(3,5-dichloropyridazin-4-yl)ethoxy)-1H-indazol-3-yl)nicotinonitrile] |
| 20 to 100 | 100 to 300 | 1 to 20 | 1 to 20 | 1 to 20 | C[C@@H](Oc1cc2c(-c3cnc(N4CC5(CCCS(=O)(=O)C5)C4)c(C#N)c3)n[nH]c2cc1F)c1c(Cl)cncc1Cl [Example 362] |
| > 300 | > 300 | > 300 | > 300 | > 300 | C[C@@H](Oc1ccc2[nH]nc(-c3cnc(N4CCC4CN(C)C)c(C#N)c3)c2c1)c1c(Cl)cncc1Cl (stereo partly drawn) [Example 363, 5-(5-((R)-1-(3,5-dichloropyridin-4-yl)ethoxy)-1H-indazol-3-yl)-2-(2-((dimethylamino)methyl)azetidin-1-yl)nicotinonitrile] |
| 20 to 100 | 1 to 20 | 1 to 20 | 1 to 20 | 20 to 100 | C[C@@H](Oc1cc2c(-c3cnc(N4CC(C)(C)C4)c(C#N)c3)n[nH]c2cc1Cl)c1c(Cl)cncc1Cl [Example 364, (R)-5-(6-chloro-5-(1-(3,5-dichloropyridin-4-yl)ethoxy)-1H-indazol-3-yl)-2-(3,3-dimethylazetidin-1-yl)nicotinonitrile] |
| > 300 | > 300 | 100 to 300 | 100 to 300 | 20 to 100 | C[C@@H](Oc1cc2c(-c3cnc(N4CC[C@@H]4C)c(C#N)c3)n[nH]c2cc1Cl)c1c(Cl)cncc1Cl [Example 365, 5-(6-chloro-5-((R)-1-(3,5-dichloropyridin-4-yl)ethoxy)-1H-indazol-3-yl)-2-((S)-2-methylazetidin-1-yl)nicotinonitrile] |
| 100 to 300 | > 300 | 20 to 100 | 20 to 100 | 1 to 20 | C[C@@H](Oc1cc2c(-c3cnc(N4CCC4)c(CN(C)C)c3)n[nH]c2cc1Cl)c1c(Cl)cncc1Cl [Example 366, (R)-1-(2-(azetidin-1-yl)-5-(6-chloro-5-(1-(3,5-dichloropyridin-4-yl)ethoxy)-1H-indazol-3-yl)pyridin-3-yl)-N,N-dimethylmethanamine] |
| > 300 | > 300 | 100 to 300 | 20 to 100 | 20 to 100 | COc1cc2[nH]nc(-c3cnc(N4CCC4)c(S(C)(=O)=O)c3)c2cc1O[C@H](C)c1c(Cl)cncc1Cl [Example 367, (R)-3-(6-(azetidin-1-yl)-5-(methylsulfonyl)pyridin-3-yl)-5-(1-(3,5-dichloropyridin-4-yl)ethoxy)-6-methoxy-1H-indazole] |

The remaining lines, values behind:

| SMILES | Kd (FGFR1) [nM] | Kd (FGFR2) [nM] | Kd (FGFR3) [nM] | Kd (FGFR3 (V555M)) [nM] | Kd (FGFR4) [nM] |
| --- | --- | --- | --- | --- | --- |
| C[C@@H](Oc1ccc2[nH]nc(-c3cnc(N4CC[C@@H]4CO)c(C#N)c3)c2c1)c1c(Cl)cncc1Cl [Example 351, 5-(5-((R)-1-(3,5-dichloropyridin-4-yl)ethoxy)-1H-indazol-3-yl)-2-((R)-2-(hydroxymethyl)azetidin-1-yl)nicotinonitrile] | 20 to 100 | 100 to 300 | 1 to 20 | 1 to 20 | 1 to 20 |
| Cc1cc2[nH]nc(-c3cnc(N4CC5(C4)CN(S(C)(=O)=O)C5)c(C#N)c3)c2cc1O[C@H](C)c1c(Cl)cncc1Cl [Example 352, (R)-5-(5-(1-(3,5-dichloropyridin-4-yl)ethoxy)-6-methyl-1H-indazol-3-yl)-2-(6-(methylsulfonyl)-2,6-diazaspiro[3.3]heptan-2-yl)nicotinonitrile] | 20 to 100 | 100 to 300 | 1 to 20 | 1 to 20 | 1 to 20 |
| C[C@@H](Oc1ccc2[nH]nc(-c3cnc(N4CC(F)(F)C4)c(C#N)c3)c2c1)c1c(Cl)cncc1Cl [Example 353, (R)-5-(5-(1-(3,5-dichloropyridin-4-yl)ethoxy)-1H-indazol-3-yl)-2-(3,3-difluoroazetidin-1-yl)nicotinonitrile] | > 300 | > 300 | 20 to 100 | 20 to 100 | 1 to 20 |
| C[C@@H](Oc1ccc2[nH]nc(-c3cnc(N4CC[C@H]4CO)c(C#N)c3)c2c1)c1c(Cl)cncc1Cl [Example 354, 5-(5-((R)-1-(3,5-dichloropyridin-4-yl)ethoxy)-1H-indazol-3-yl)-2-((S)-2-(hydroxymethyl)azetidin-1-yl)nicotinonitrile] | 20 to 100 | 20 to 100 | 1 to 20 | 1 to 20 | 1 to 20 |
| C[C@@H](Oc1cc2c(-c3cnc(N4CC5(C4)CN(S(C)(=O)=O)C5)c(C#N)c3)n[nH]c2cc1F)c1c(Cl)cncc1Cl [Example 355, (R)-5-(5-(1-(3,5-dichloropyridin-4-yl)ethoxy)-6-fluoro-1H-indazol-3-yl)-2-(6-(methylsulfonyl)-2,6-diazaspiro[3.3]heptan-2-yl)nicotinonitrile] | 1 to 20 | 20 to 100 | 1 to 20 | 1 to 20 | 1 to 20 |
| C[C@@H](Oc1ccc2[nH]nc(-c3cnc(N4CC5(C4)CN(S(C)(=O)=O)C5)c(CN(C)C)c3)c2c1)c1c(Cl)cncc1Cl [Example 356, (R)-1-(5-(5-(1-(3,5-dichloropyridin-4-yl)ethoxy)-1H-indazol-3-yl)-2-(6-(methylsulfonyl)-2,6-diazaspiro[3.3]heptan-2-yl)pyridin-3-yl)-N,N-dimethylmethanamine] | > 300 | > 300 | > 300 | 100 to 300 | 20 to 100 |
| COc1cc2[nH]nc(-c3cnc(N4CC5(C4)CN(S(C)(=O)=O)C5)c(CN(C)C)c3)c2cc1O[C@H](C)c1c(Cl)cncc1Cl [Example 357, (R)-1-(5-(5-(1-(3,5-dichloropyridin-4-yl)ethoxy)-6-methoxy-1H-indazol-3-yl)-2-(6-(methylsulfonyl)-2,6-diazaspiro[3.3]heptan-2-yl)pyridin-3-yl)-N,N-dimethylmethanamine] | > 300 | > 300 | 100 to 300 | 20 to 100 | 1 to 20 |
| C[C@@H](Oc1ccc2[nH]nc(-c3cnc(N4CC(C)(N)C4)c(C#N)c3)c2c1)c1c(Cl)cncc1Cl [Example 358, (R)-2-(3-amino-3-methylazetidin-1-yl)-5-(5-(1-(3,5-dichloropyridin-4-yl)ethoxy)-1H-indazol-3-yl)nicotinonitrile] | 20 to 100 | 100 to 300 | 1 to 20 | 1 to 20 | 1 to 20 |
| C[C@@H](Oc1cc2c(-c3cnc(N4CC5(C4)CN(S(C)(=O)=O)C5)c(C#N)c3)n[nH]c2cc1Cl)c1c(Cl)cncc1Cl [Example 359, (R)-5-(6-chloro-5-(1-(3,5-dichloropyridin-4-yl)ethoxy)-1H-indazol-3-yl)-2-(6-(methylsulfonyl)-2,6-diazaspiro[3.3]heptan-2-yl)nicotinonitrile] | 20 to 100 | 20 to 100 | 1 to 20 | > 300 | 1 to 20 |
| COc1cc2[nH]nc(-c3cnc(N4CCC4)c(C#N)c3)c2cc1O[C@H](C)c1c(Cl)cnnc1Cl [Example 360, (R)-2-(azetidin-1-yl)-5-(5-(1-(3,5-dichloropyridazin-4-yl)ethoxy)-6-methoxy-1H-indazol-3-yl)nicotinonitrile] | 100 to 300 | 20 to 100 | 20 to 100 | > 300 | 1 to 20 |
